Measured values as given in patent US5783568A, “Methods for treating cancer and other cell proliferative diseases” (Sugen, Inc., priority 1994, dated 1998).
“Also recorded” adds a separate entry of the source. Like-named read-outs stand apart in the source and are kept apart here.

What was measured:
[1] = system: heparin binding proteins; conditions: cited from earlier work
[2] = biological target: T1, aFGF (Homo sapiens, UniProt P05230); test: Isothermal titration calorimetry, binding to aFGF; conditions: ITC
T1 construct: made in house; host or cells: E. coli

[3] = system: FGFR2 (bek); test: Tyrosine phosphorylation of FGFR2 in wild-type CHO-K1 cells; assay type: cell-based, human; conditions: excess of sucrose octasulfate (0.5, 50 or 500 μM) with aFGF and heparin
Experimental: (§1) Cells were lysed and the receptor was immunoprecipitated with anti-FGFR2 antibodies. Samples were then analyzed by SDS-PAGE, transferred to nitrocellulose membranes, and tyrosine-phosphorylated proteins were detected by immunoblotting with anti-phosphotyrosine antibodies.
(§2) Wild-type CHO cells (CHO-K1), as well as heparin sulfate-deficient mutant cells (CHO-pgsD-677) which were kindly provided by Prof. J. Esko (Esko, 1991), were cultured in F-12 medium containing 7.5% FBS, 1% Ampicillin/Streptomycin and 1% glutamine. Both CHO cell lines were co-transfected with the wild-type human FGFR2 (bek) DNA in the expression vector pMJ30 (Dionne et al., 1990) (40 μg/10 cm dish) and the pSVneo resistant gene (0.5 mg/10 cm dish), using the calcium phosphate method (Chen and Okayama, 1987). Geneticin (1 mg/ml) resistant clones were screened for expression of the receptor by immunoprecipitation and immunoblotting analysis using anti-FGFR2 antibodies.
(§3) Wild-type and mutant CHO cells were starved overnight in F-12 medium containing 0.5% FBS, and stimulated with either 0.1 nM aFGF, 50 nM heparin, or both, for 5 min at 37° C. Cells were lysed, immunoprecipitated with anti-FGFR2 antibodies and analyzed by immunoblotting with anti-phosphotyrosine (anti-PTyr) antibodies.

[4] = system: FGFR2 (bek); test: Tyrosine phosphorylation of FGFR2 in mutant (HSPG-deficient) CHO-pgsD-677 cells; assay type: cell-based, human
Experimental: as §1, §2, §3

[5] = system: bFGF; conditions: cited from earlier work
[6] = system: tumor cells; conditions: Wellstein et al, 1991; cited from earlier work
[7] = system: K-FGF; conditions: cited from earlier work
[8] = system: gastric mucosa; conditions: cited from earlier work
[9] = system: EGF; conditions: cited from earlier work
[10] = system: VEGF; conditions: cell culture; Kendall & Thomas, 1993; cited from earlier work

T1 sequence (P05230 whole entry): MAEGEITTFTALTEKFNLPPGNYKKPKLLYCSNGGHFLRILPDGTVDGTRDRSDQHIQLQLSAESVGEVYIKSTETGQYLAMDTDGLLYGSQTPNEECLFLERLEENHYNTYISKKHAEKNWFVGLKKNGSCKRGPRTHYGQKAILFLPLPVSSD

For `Cc1ccc(C(=O)Nc2ccc(S(=O)(=O)O)c3cc(S(=O)(=O)O)cc(S(=O)(=O)O)c23)cc1NC(=O)c1cccc(NC(=O)Nc2cccc(C(=O)Nc3cc(C(=O)Nc4ccc(S(=O)(=O)O)c5cc(S(=O)(=O)O)cc(S(=O)(=O)O)c45)ccc3C)c2)c1` [Suramin], the “effect on heparin binding proteins” value [1] is given as “inducing microagglutination of the growth factor; also recorded: inhibit a variety of heparin binding proteins”.

With `O=S(=O)(O)OC[C@H]1O[C@@](COS(=O)(=O)O)(O[C@H]2O[C@H](COS(=O)(=O)O)[C@@H](OS(=O)(=O)O)[C@H](OS(=O)(=O)O)[C@H]2OS(=O)(=O)O)[C@@H](OS(=O)(=O)O)[C@@H]1OS(=O)(=O)O` [sucrose octasulfate] the “AH of aFGF binding to heparin / heparin analog” value ([2]; heparins: means ± SD of two experiments) was -5.8 ± 1.2 kcal mol^-1, the Kd ([2]; single class of binding sites, heparins: means ± SD of two experiments, read-out: KD of aFGF binding to heparin / heparin analog) was 3.4 ± 1.34 µM and the Kd ([2]; KD of aFGF binding to sucrose octasulfate) was 3.4 µM. For the same molecule, the “effect on aFGF/heparin-induced receptor activation, CHO cells that express HSPG” value [3] was “inhibitory”, the “effect on aFGF/heparin-induced receptor activation, mutant CHO cells” value ([4]; excess of sucrose octasulfate (0.5, 50 or 500 μM) with 0.1 nM aFGF and 50 nM heparin) was “inhibitory; also recorded: can be inhibited” and the “aFGF/heparin-induced dimerization and activation of FGFR” value ([4]; statement of Section 5.1 referring to Section 7.2.8) was “effectively inhibits aFGF/heparin-induced dimerization and activation of FGFR”. The “activation of FGFR by aFGF with sucrose octasulfate in place of heparin, mutant CHO cells” value ([4]; sucrose octasulfate plus aFGF, no heparin) was “does not enable aFGF to activate FGFR in the mutant (HSPG-deficient) CHO cells” and the “protection of bFGF from acid degradation” value [5] was “protect the biologic activity of bFGF against acid degradation”.

For Pentosan polysulfate, the “growth of tumor cells in vitro” value [6] is listed as “selective inhibition of growth of tumor cells in vitro”, the K-FGF-induced growth ([7]; Wellstein et al., 1991) is listed as “inhibited the K-FGF- induced growth” and the “FGF-induced angiogenesis and tumor growth” value [7] is listed as “inhibited the FGF-induced angiogenesis and tumor growth”.

For “sucrose octakis (hydrogen sulfate) aluminum complex [sucralfate]”, the “ulcer healing / wound healing” value ([8]; in vivo) is given as “accelerates ulcer healing without reducing gastric acid; also recorded: elevates the level of available endogenous bFGF in the ulcer bed and stimulates angiogenesis and wound healing”, the epithelial proliferation ([8]; through stimulation of gastric mucosal EGF and PDGF receptors) is given as “enhances epithelial proliferation” and the “protection of bFGF from acid degradation” value [5] is given as “protects bFGF from degradation by acid”. The “affinity to bFGF” value ([5]; compared with heparin) was “higher affinity binding to bFGF than heparin” and the EGF binding [9] was “binds EGF in a pH-dependent manner”.

B1: soluble Flt-1: soluble Flt-1, one of the receptors for VEGF (protein, UniProt P17948 27-758, looked up)
extracellular domain: SKLKDPELSLKGTQHIMQAGQTLHLQCRGEAAHKWSLPEMVSKESERLSITKSACGRNGKQFCSTLTLNTAQANHTGFYSCKYLAVPTSKKKETESAIYIFISDTGRPFVEMYSEIPEIIHMTEGRELVIPCRVTSPNITVTLKKFPLDTLIPDGKRIIWDSRKGFIISNATYKEIGLLTCEATVNGHLYKTNYLTHRQTNTIIDVQISTPRPVKLLRGHTLVLNCTATTPLNTRVQMTWSYPDEKNKRASVRRRIDQSNSHANIFYSVLTIDKMQNKDKGLYTCRVRSGPSFKSVNTSVHIYDKAFITVKHRKQQVLETVAGKRSYRLSMKVKAFPSPEVVWLKDGLPATEKSARYLTRGYSLIIKDVTEEDAGNYTILLSIKQSNVFKNLTATLIVNVKPQIYEKAVSSFPDPALYPLGSRQILTCTAYGIPQPTIKWFWHPCNHNHSEARCDFCSNNEESFILDADSNMGNRIESITQRMAIIEGKNKMASTLVVADSRISGIYICIASNKVGTVGRNISFYITDVPNGFHVNLEKMPTEGEDLKLSCTVNKFLYRDVTWILLRTVNNRTMHYSISKQKMAITKEHSITLNLTIMNVSLQDSGTYACRARNVYTGEEILQKKEITIRDQEAPYLLRNLSDHTVAISSSTTLDCHANGVPEPQITWFKNNHKIQQEPGIILGPGSSTLFIERVTEEDEGVYHCKATNQKGSVESSAYLTVQGTSDKSNLE
modifications: extracellular domain
notes: soluble Flt-1, one of the receptors for VEGF
In the case of B1, the VEGF activity [10] is given as “can bind and inhibit the activity of VEGF in cell culture”.
